Measured values published in ChEMBL document CHEMBL1201862, “PubChem BioAssay data set” (2004).
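Cultured in 96-well plates, cells were exposed to test compound for 48 hours across five concentrations. Here, GI50 denotes the concentration required for 50% inhibition of growth.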 Active and inactive are the calls of the source. No stated cut-off is given here; in the data, active = GI50 up to about 1.1 µM and inactive = higher.

Key:
Assay in all cases: NCI anticancer screen, dose series, 48 h
786-0 = system: 786-0
A498 = system: A498
A549 = system: A549
ACHN = system: ACHN
BT-549 = system: BT-549
CAKI-1 = system: CAKI-1
COLO 205 = system: COLO 205
DU-145 = system: DU-145
EKVX = system: EKVX
HCT-116 = system: HCT-116
HCT-15 = system: HCT-15
HL-60 = system: HL-60
HOP-62 = system: HOP-62
HOP-92 = system: HOP-92
HT-29 = system: HT-29
Hs-578T = system: Hs-578T
IGROV-1 = system: IGROV-1
K562 = system: K562
KM12 = system: KM12
LOX IMVI = system: LOX IMVI
M14 = system: M14
MCF7 = system: MCF7
MDA-MB-231 = system: MDA-MB-231
MDA-MB-435 = system: MDA-MB-435
MDA-N = system: MDA-N
MOLT-4 = system: MOLT-4
Malme-3M = system: Malme-3M
NCI-H226 = system: NCI-H226
NCI-H23 = system: NCI-H23
NCI-H460 = system: NCI-H460
NCI-H522 = system: NCI-H522
NCI/ADR-RES = system: NCI/ADR-RES
OVCAR-3 = system: OVCAR-3
OVCAR-4 = system: OVCAR-4
OVCAR-5 = system: OVCAR-5
OVCAR-8 = system: OVCAR-8
PC-3 = system: PC-3
RPMI-8226 = system: RPMI-8226
SF-268 = system: SF-268
SF-295 = system: SF-295
SF-539 = system: SF-539
SK-MEL-28 = system: SK-MEL-28
SK-MEL-2 = system: SK-MEL-2
SK-MEL-5 = system: SK-MEL-5
SK-OV-3 = system: SK-OV-3
SN12C = system: SN12C
SNB-19 = system: SNB-19
SR = system: SR
SW-620 = system: SW-620
T47D = system: T47D
TK-10 = system: TK-10
U-251 = system: U-251
UACC-257 = system: UACC-257
UACC-62 = system: UACC-62
UO-31 = system: UO-31
HCC 2998 = system: HCC 2998
RXF 393 = system: RXF 393
SNB-75 = system: SNB-75
CCRF-CEM = system: CCRF-CEM

## CN(C)CCNCCN
786-0
  GI50: > 100 µM (inactive)
A498
  GI50: > 100 µM (inactive)
A549
  GI50: > 100 µM (inactive)
ACHN
  GI50: > 100 µM (inactive)
BT-549
  GI50: > 100 µM (inactive)
CAKI-1
  GI50: > 100 µM (inactive)
COLO 205
  GI50: > 100 µM (inactive)
DU-145
  GI50: > 100 µM (inactive)
EKVX
  GI50: > 100 µM (inactive)
HCT-116
  GI50: > 100 µM (inactive)
HCT-15
  GI50: > 100 µM
HL-60
  GI50: > 100 µM (inactive)
HOP-62
  GI50: > 100 µM (inactive)
HOP-92
  GI50: > 100 µM (inactive)
HT-29
  GI50: > 100 µM (inactive)
Hs-578T
  GI50: > 100 µM (inactive)
IGROV-1
  GI50: > 100 µM (inactive)
K562
  GI50: > 100 µM (inactive)
KM12
  GI50: > 100 µM (inactive)
LOX IMVI
  GI50: > 100 µM (inactive)
M14
  GI50: > 100 µM (inactive)
MCF7
  GI50: > 100 µM (inactive)
MDA-MB-231
  GI50: > 100 µM (inactive)
MDA-MB-435
  GI50: > 100 µM (inactive)
MDA-N
  GI50: > 100 µM (inactive)
MOLT-4
  GI50: > 100 µM (inactive)
Malme-3M
  GI50: > 100 µM (inactive)
NCI-H226
  GI50: > 100 µM (inactive)
NCI-H23
  GI50: > 100 µM (inactive)
NCI-H460
  GI50: > 100 µM (inactive)
NCI-H522
  GI50: > 100 µM (inactive)
NCI/ADR-RES
  GI50: > 100 µM (inactive)
OVCAR-3
  GI50: > 100 µM (inactive)
OVCAR-4
  GI50: > 100 µM (inactive)
OVCAR-5
  GI50: > 100 µM (inactive)
OVCAR-8
  GI50: > 100 µM (inactive)
PC-3
  GI50: > 100 µM (inactive)
RPMI-8226
  GI50: > 100 µM (inactive)
SF-268
  GI50: > 100 µM (inactive)
SF-295
  GI50: > 100 µM (inactive)
SF-539
  GI50: > 100 µM (inactive)
SK-MEL-28
  GI50: > 100 µM (inactive)
SK-MEL-2
  GI50: > 100 µM (inactive)
SK-MEL-5
  GI50: > 100 µM (inactive)
SK-OV-3
  GI50: > 100 µM (inactive)
SN12C
  GI50: > 100 µM (inactive)
SNB-19
  GI50: > 100 µM (inactive)
SR
  GI50: > 100 µM (inactive)
SW-620
  GI50: > 100 µM (inactive)
T47D
  GI50: > 100 µM (inactive)
TK-10
  GI50: > 100 µM (inactive)
U-251
  GI50: > 100 µM (inactive)
UACC-257
  GI50: > 100 µM (inactive)
UACC-62
  GI50: > 100 µM (inactive)
UO-31
  GI50: > 100 µM (inactive)

## O=c1c2ccccc2nc(-c2cc3c(cc2Cl)Sc2nccn2S3(=O)=O)n1-c1ccccc1
786-0
  GI50: 30.1 µM (inactive)
A549
  GI50: > 100 µM (inactive)
ACHN
  GI50: > 100 µM (inactive)
BT-549
  GI50: 41.1 µM (inactive)
CAKI-1
  GI50: > 100 µM (inactive)
COLO 205
  GI50: > 100 µM (inactive)
DU-145
  GI50: 20.8 µM (inactive)
EKVX
  GI50: 21.4 µM (inactive)
HCC 2998
  GI50: 15.1 µM (inactive)
HCT-116
  GI50: 14.2 µM (inactive)
HCT-15
  GI50: 12.9 µM
HL-60
  GI50: 4.13 µM (inactive)
HOP-62
  GI50: 18.2 µM (inactive)
HOP-92
  GI50: 22.9 µM (inactive)
HT-29
  GI50: 40.5 µM (inactive)
Hs-578T
  GI50: 12.2 µM (inactive)
IGROV-1
  GI50: 42.6 µM (inactive)
K562
  GI50: 18.8 µM (inactive)
KM12
  GI50: 11.1 µM (inactive)
LOX IMVI
  GI50: 88.7 µM (inactive)
M14
  GI50: > 100 µM (inactive)
MCF7
  GI50: 14.2 µM (inactive)
MDA-MB-231
  GI50: 18.4 µM (inactive)
MDA-MB-435
  GI50: 22.8 µM (inactive)
MDA-N
  GI50: 15.6 µM (inactive)
MOLT-4
  GI50: > 100 µM (inactive)
Malme-3M
  GI50: > 100 µM (inactive)
NCI-H226
  GI50: > 100 µM (inactive)
NCI-H23
  GI50: 62.5 µM (inactive)
NCI-H460
  GI50: 37.3 µM (inactive)
NCI-H522
  GI50: > 100 µM (inactive)
NCI/ADR-RES
  GI50: 19.1 µM (inactive)
OVCAR-3
  GI50: 15.9 µM (inactive)
OVCAR-4
  GI50: 17.9 µM (inactive)
OVCAR-5
  GI50: > 100 µM (inactive)
OVCAR-8
  GI50: 12.3 µM (inactive)
PC-3
  GI50: 16.5 µM (inactive)
RPMI-8226
  GI50: 12.9 µM (inactive)
RXF 393
  GI50: 18.8 µM (inactive)
SF-268
  GI50: 7.1 µM (inactive)
SF-295
  GI50: 21.6 µM (inactive)
SF-539
  GI50: 20.4 µM (inactive)
SK-MEL-28
  GI50: 21.4 µM (inactive)
SK-MEL-2
  GI50: 18.5 µM (inactive)
SK-MEL-5
  GI50: 45.3 µM (inactive)
SK-OV-3
  GI50: > 100 µM (inactive)
SN12C
  GI50: 45.5 µM (inactive)
SNB-19
  GI50: 40.8 µM (inactive)
SNB-75
  GI50: 21.4 µM (inactive)
SR
  GI50: 67.6 µM (inactive)
SW-620
  GI50: 13.5 µM (inactive)
T47D
  GI50: 8.93 µM (inactive)
TK-10
  GI50: 21.5 µM (inactive)
U-251
  GI50: 16.8 µM (inactive)
UACC-257
  GI50: 18 µM (inactive)
UACC-62
  GI50: 26.4 µM (inactive)
UO-31
  GI50: 16.6 µM (inactive)

## CCOC(=O)c1cc2c3ccn(Cc4ccccc4)c3c3c(C)noc3c2[nH]1
786-0
  GI50: > 100 µM (inactive)
A498
  GI50: > 100 µM (inactive)
A549
  GI50: > 100 µM (inactive)
ACHN
  GI50: > 100 µM (inactive)
BT-549
  GI50: > 100 µM (inactive)
CAKI-1
  GI50: > 100 µM (inactive)
CCRF-CEM
  GI50: > 100 µM (inactive)
COLO 205
  GI50: > 100 µM (inactive)
DU-145
  GI50: > 100 µM (inactive)
EKVX
  GI50: > 100 µM (inactive)
HCC 2998
  GI50: > 100 µM (inactive)
HCT-116
  GI50: > 100 µM (inactive)
HCT-15
  GI50: > 100 µM
HL-60
  GI50: > 100 µM (inactive)
HOP-62
  GI50: > 100 µM (inactive)
Hs-578T
  GI50: > 100 µM (inactive)
IGROV-1
  GI50: > 100 µM (inactive)
K562
  GI50: > 100 µM (inactive)
KM12
  GI50: > 100 µM (inactive)
LOX IMVI
  GI50: > 100 µM (inactive)
M14
  GI50: > 100 µM (inactive)
MCF7
  GI50: > 100 µM (inactive)
MDA-MB-231
  GI50: > 100 µM (inactive)
MDA-MB-435
  GI50: > 100 µM (inactive)
MDA-N
  GI50: > 100 µM (inactive)
MOLT-4
  GI50: > 100 µM (inactive)
Malme-3M
  GI50: > 100 µM (inactive)
NCI-H226
  GI50: > 100 µM (inactive)
NCI-H23
  GI50: > 100 µM (inactive)
NCI-H460
  GI50: > 100 µM (inactive)
NCI-H522
  GI50: > 100 µM (inactive)
NCI/ADR-RES
  GI50: > 100 µM (inactive)
OVCAR-3
  GI50: > 100 µM (inactive)
OVCAR-4
  GI50: > 100 µM (inactive)
OVCAR-5
  GI50: > 100 µM (inactive)
OVCAR-8
  GI50: > 100 µM (inactive)
PC-3
  GI50: > 100 µM (inactive)
RPMI-8226
  GI50: > 100 µM (inactive)
RXF 393
  GI50: > 100 µM (inactive)
SF-268
  GI50: > 100 µM (inactive)
SF-295
  GI50: > 100 µM (inactive)
SK-MEL-28
  GI50: > 100 µM (inactive)
SK-MEL-2
  GI50: > 100 µM (inactive)
SK-MEL-5
  GI50: > 100 µM (inactive)
SN12C
  GI50: > 100 µM (inactive)
SNB-19
  GI50: > 100 µM (inactive)
SNB-75
  GI50: 74.6 µM (inactive)
SR
  GI50: > 100 µM (inactive)
SW-620
  GI50: > 100 µM (inactive)
T47D
  GI50: > 100 µM (inactive)
TK-10
  GI50: > 100 µM (inactive)
U-251
  GI50: > 100 µM (inactive)
UACC-257
  GI50: > 100 µM (inactive)
UACC-62
  GI50: > 100 µM (inactive)
UO-31
  GI50: > 100 µM (inactive)
